According to ChEMBL document CHEMBL3585240, “Synthesis and biological evaluation of caracasine acid derivatives” (Bioorg Med Chem, 2015):
Active and inactive are the calls of the source. No cut-off for these calls is given here.

What was measured:
[1] = system: PC-3; assay: Cytotoxicity against human PC3 cells assessed as growth inhibition after 72 hrs by MTT assay; format: functional, cell-based; conditions: PC-3, 72 h
[2] = system: MCF7; assay: Cytotoxicity against human MCF7 cells assessed as growth inhibition after 72 hrs by MTT assay; format: functional, cell-based; conditions: MCF7, 72 h
[3] = system: Leishmania mexicana; assay: Antileishmanial activity against promastigote stage of Leishmania mexicana Bel21 assessed as growth inhibition after 48 hrs by MTT assay; format: functional, organism-based; conditions: Bel21, 48 h
[4] = system: Trypanosoma cruzi; assay: Antitrypanosomal activity against epimastigote stage of Trypanosoma cruzi CL Brener assessed as growth inhibition after 5 days by MTT assay; format: functional; conditions: 120 h
[5] = Cytotoxicity against human skin fibroblasts assessed as growth inhibition after 72 hrs by MTT assay; conditions: Skin fibroblast
[6] = system: PC-3; assay: Selectivity index, ratio of IC50 for human skin fibroblasts to IC50 for human PC3 cells
[7] = system: MCF7; assay: Selectivity index, ratio of IC50 for human skin fibroblasts to IC50 for human MCF7 cells
[8] = Selectivity index, ratio of IC50 for human skin fibroblasts to IC50 for promastigote stage of Leishmania mexicana Bel21
[9] = Selectivity index, ratio of IC50 for human skin fibroblasts to IC50 for epimastigote stage of Trypanosoma cruzi CL Brener
[10] = system: Bacillus cereus; assay: Antibacterial activity against Bacillus cereus ATCC 14579 assessed as growth inhibition at 2 mg/ml after 24 hrs by disc agar diffusion method; format: functional; conditions: for zone of inhibition at 2000 µg/mL: ATCC 14579, 24 h, read-out: DIZ
[11] = system: Staphylococcus aureus; assay: Antibacterial activity against Staphylococcus aureus ATCC 25923 assessed as growth inhibition at 2 mg/ml after 24 hrs by disc agar diffusion method; format: functional; conditions: for zone of inhibition at 2000 µg/mL: ATCC 25923, 24 h, read-out: DIZ
[12] = system: Escherichia coli; assay: Antibacterial activity against Escherichia coli ATCC 35218 assessed as growth inhibition at 2 mg/ml after 24 hrs by disc agar diffusion method; format: functional; conditions: for zone of inhibition at 2000 µg/mL: ATCC 35218, 24 h, read-out: DIZ
[13] = system: Pseudomonas aeruginosa; assay: Antibacterial activity against Pseudomonas aeruginosa ATCC 27853 assessed as growth inhibition at 2 mg/ml after 24 hrs by disc agar diffusion method; format: functional; conditions: for zone of inhibition at 2000 µg/mL: ATCC 27853, 24 h, read-out: DIZ
[14] = system: Bacillus cereus; assay: Antibacterial activity against Bacillus cereus ATCC 14579 assessed as growth inhibition at 30 ug after 24 hrs by disc agar diffusion method; format: functional; conditions: ATCC 14579, 24 h, read-out: DIZ
[15] = system: Staphylococcus aureus; assay: Antibacterial activity against Staphylococcus aureus ATCC 25923 assessed as growth inhibition at 30 ug after 24 hrs by disc agar diffusion method; format: functional; conditions: ATCC 25923, 24 h, read-out: DIZ
[16] = system: Escherichia coli; assay: Antibacterial activity against Escherichia coli ATCC 35218 assessed as growth inhibition at 30 ug after 24 hrs by disc agar diffusion method; format: functional; conditions: ATCC 35218, 24 h, read-out: DIZ
[17] = system: Pseudomonas aeruginosa; assay: Antibacterial activity against Pseudomonas aeruginosa ATCC 27853 assessed as growth inhibition at 30 ug after 24 hrs by disc agar diffusion method; format: functional; conditions: ATCC 27853, 24 h, read-out: DIZ

Row | Structure (SMILES) | IC50 [1] | IC50 [2] | IC50 [3] | IC50 [4] | IC50 [5] | Ratio IC50 [6] | Ratio IC50 [7] | Ratio IC50 [8] | Ratio IC50 [9] | zone of inhibition at 2000 µg/mL [10] | zone of inhibition at 2000 µg/mL [11] | growth inhibition (GI) [12] | growth inhibition (GI) [13] | zone of inhibition at 2000 µg/mL [12] | zone of inhibition at 2000 µg/mL [13] | growth inhibition (GI) [11] | further results
1 | C=C1C(=O)[C@@]23CC[C@H](C(=C)C)[C@@](C)(CCC(=O)OCCC)[C@@H]2CC[C@H]1C3 | 4.2 µM | 6.6 µM | 1.5 µM | 3.1 µM | 6.2 µM | 1.5 | 0.9 | 4.1 | 2 | 20 mm | 12 mm | inactive | inactive |  |  |  | 
2 | C=C1C(=O)[C@@]23CC[C@H](C(=C)C)[C@@](C)(CCC(=O)NC4CCCCC4)[C@@H]2CC[C@H]1C3 | 3.9 µM | 10 µM | 2 µM | 2.8 µM | 12 µM | 3.1 | 1.2 | 6 | 4.3 | 15 mm | 15 mm |  |  | 16 mm | 12 mm |  | 
3 | C=C1C(=O)[C@@]23CC[C@H](C(=C)C)[C@@](C)(CCC(=O)OC4CCCCC4)[C@@H]2CC[C@H]1C3 | 1.9 µM | 2.1 µM | 1.2 µM | 5.5 µM | < 3.9 µM | 2.1 | 1.9 | <3.3 | <0.7 | 12 mm | 30 mm |  |  | 28 mm | 30 mm |  | 
4 | C=C(C)[C@H]1CC[C@@]23C[C@H](CC[C@H]2[C@]1(C)CCC(=O)OC)C(COC)C3=O (stereo partly drawn) |  |  |  |  |  |  |  |  |  | 12 mm | 13 mm |  |  | 15 mm | 15 mm |  | 
5 | C=C(C)[C@H]1CC[C@@]23C[C@H](CC[C@H]2[C@]1(C)CCC(=O)OC)C(CC(C#N)P(=O)(OCC)OCC)C3=O (stereo partly drawn) |  |  |  |  |  |  |  |  |  |  |  | inactive | inactive |  |  | inactive | growth inhibition (GI) [10]: inactive
6 | NCC[C@H](O)C(=O)N[C@@H]1C[C@H](N)[C@@H](O[C@H]2O[C@H](CN)[C@@H](O)[C@H](O)[C@H]2O)[C@H](O)[C@H]1O[C@H]1O[C@H](CO)[C@@H](O)[C@H](N)[C@H]1O [AMIKACIN] |  |  |  |  |  |  |  |  |  |  |  |  |  |  |  |  | zone of inhibition at 30 µg/disc [14]: 32 mm; zone of inhibition at 30 µg/disc [15]: 16 mm; zone of inhibition at 30 µg/disc [16]: 22 mm; zone of inhibition at 30 µg/disc [17]: 16 mm
7 | C=C(C)[C@H]1CC[C@@]23C[C@H](CC[C@H]2[C@]1(C)CCC(=O)O)C(COCC)C3=O (stereo partly drawn) |  |  |  |  |  |  |  |  |  | 10 mm | 12 mm |  |  | 14 mm | 15 mm |  | 
8 | C=C(C)[C@H]1CC[C@@]23C[C@H](CC[C@H]2[C@]1(C)CCC(=O)O)C(CC#N)C3=O (stereo partly drawn) | > 138 µM | 144 µM | > 44 µM |  | 51.9 µM |  | 0.5 | <1.2 |  |  |  | inactive | inactive |  |  | inactive | growth inhibition (GI) [10]: inactive
9 | C=C1C(=O)[C@@]23CC[C@H](C(C)(O)CO)[C@@](C)(CCC(=O)O)[C@@H]2CC[C@H]1C3 (stereo partly drawn) | 21.9 µM | 46.3 µM | 42.8 µM | 42.6 µM | 25.4 µM | 1.2 | 0.5 | 0.6 | 0.6 | 20 mm |  |  | inactive | 15 mm |  | inactive | 
10 | C=C1C(=O)[C@@]23CC[C@H](C(=C)C)[C@@](C)(CCC(=O)O)[C@@H]2CC[C@H]1C3 | 7.9 µM | 15.8 µM | 30.8 µM | 22.3 µM | 39.7 µM | 5 | 2.5 | 1.3 | 1.8 | 22 mm | 24 mm |  |  | 22 mm | 30 mm |  | 
11 | C=C1C(=O)[C@@]23CC[C@H](C(=C)C)[C@@](C)(CCC(=O)OCc4ccccc4)[C@@H]2CC[C@H]1C3 | 5.5 µM | 3.7 µM | 1 µM | 4.1 µM | 3.1 µM | 0.6 | 0.8 | 3.1 | 0.8 | 24 mm | 15 mm |  |  | 22 mm | 15 mm |  | 
12 | C=C1C(=O)[C@@]23CC[C@H](C4(C)CO4)[C@@](C)(CCC(=O)O)[C@@H]2CC[C@H]1C3 (stereo partly drawn) | 6.4 µM | 22.6 µM |  |  | 24.7 µM | 3.9 | 1.1 |  |  | 20 mm | 25 mm |  |  | 18 mm | 18 mm |  | 
13 | C=C(C)[C@H]1CC[C@@]23C[C@H](CC[C@H]2[C@]1(C)CCC(=O)O)C(C)C3=O (stereo partly drawn) |  | 110 µM | > 47 µM |  | > 157 µM |  | >1.4 |  |  | 20 mm |  | inactive |  |  | 18 mm | inactive | 
14 | C=C1C(O)[C@@]23CC[C@H](C(=C)C)[C@@](C)(CCC(=O)O)[C@@H]2CC[C@H]1C3 (stereo partly drawn) | 137 µM | 86.8 µM | > 30 µM |  | 207 µM | 1.5 | 2.4 | <6.9 |  | 15 mm | 12 mm |  |  | 12 mm | 20 mm |  | 
15 | C=C1C(=O)[C@@]23CC[C@H](C(=C)C)[C@@](C)(CCC(=O)OCC)[C@@H]2CC[C@H]1C3 | 4.4 µM | 5.1 µM | 1.6 µM | 2.7 µM | 3.7 µM | 0.8 | 0.7 | 2.3 | 1.4 |  |  | inactive | inactive |  |  | inactive | growth inhibition (GI) [10]: inactive
16 | C=C1C(=O)[C@@]23CC[C@H](C(=C)C)[C@@](C)(CCC(=O)OCCCC)[C@@H]2CC[C@H]1C3 | 4.7 µM | 5.6 µM | 1.2 µM | 4.2 µM | 7 µM | 1.5 | 1.3 | 5.8 | 1.7 |  |  | inactive | inactive |  |  | inactive | growth inhibition (GI) [10]: inactive
17 | C=C(C)[C@H]1CC[C@@]23C[C@H](CC[C@H]2[C@]1(C)CCC(=O)O)C(CSCc1ccccc1)C3=O (stereo partly drawn) |  |  | 22.1 µM | 39.3 µM | 42.7 µM |  |  | 1.9 | 1.1 | 20 mm | 22 mm |  |  | 25 mm | 15 mm |  | 
18 | C=C1C(=O)[C@@]23CC[C@H](C(=C)C)[C@@](C)(CCC(=O)OC)[C@@H]2CC[C@H]1C3 | 3.6 µM | 11.2 µM | 3.4 µM | 16.5 µM | 11.3 µM | 3.1 | 1 | 3.3 | 0.7 | 22 mm | 12 mm |  |  | 15 mm | 15 mm |  | 
19 | C=C1C(=O)[C@@]23CC[C@H](C(=C)C)[C@@](C)(CCC(=O)OC(C)C)[C@@H]2CC[C@H]1C3 | 5.4 µM | 5.4 µM | 1.5 µM | 4.1 µM | 7.5 µM | 1.4 | 1.4 | 5 | 1.8 |  | 15 mm | inactive |  |  | 15 mm |  | growth inhibition (GI) [10]: inactive
